One test deals with Meloidogyne incognita. Put plainly: Root gall index of soybeans inoculated with Meloidogyne incognita after seed treatment (greenhouse). The class given is in vivo. The following applies: for % Comparison to Control: first figure, base seed treatment control = 100%. The procedure: Nematicidal neutral protease (SEQ ID NO: 127) was produced by fermentation in Bacillus subtilis. The enzyme was cloned into Bacillus expression plasmid p1797 with isopropyl β-d-1-thiogalactopyranoside (IPTG)-inducible expression. The plasmid was transformed into B. subtilis, and this strain was grown in rich media until an optical density (OD) of 0.2-0.5 was reached. Then, enzyme expression was induced by addition of 1 mM IPTG. Following the culture harvest, cells were removed by filtration through a […] filter. Culture filtrate containing secreted protease was then used for seed treatment. Bacillus subtilis fermentation filtrate expressing neutral protease was mixed directly into a seed treatment slurry containing colorant and Peridiam® 1006 […] at a rate of 2 fl oz per unit of seed and coated onto Bossier variety soybean seed.
To investigate the effects of neutral protease on galling due to root knot nematode infestation, treated seeds were planted in soil in cone-tainers in a greenhouse. Seven days after planting, each cone-tainer was inoculated with 1250 eggs from the Dick Meloidogyne incognita population. Eight weeks post-inoculation, roots were excavated and washed. Root galling was visually rated on a gall index (GI) scale of 1-5 (1=<10% GI; 2=11-20%, 3=21-30%, 4=31-40%, 5=>40% GI). Fifteen plants were evaluated per treatment and their average root gall ratings were recorded.

In test [1] the test system is Btk resistant Diamondback moth. Put plainly: Diet-surface overlay (DSO) bioassay on Btk resistant Diamondback moth. The class given is in vivo, Plutella xylostella. The conditions noted are these: number of individuals, n = 32, 7 days. The procedure:
(§1) Diet-surface overlay bioassays are conducted with artificial diet mixes without antibiotics in 1.5 cm^2 cell bioassay trays(s). Artificial diets are commercially available from Southland Products Inc. Diets were prepared by dispersing 0.5 mL of molten diet to each 1.5 cm^2 cell. After solidification, 0.1 mL enzyme treatments were dispersed on top of diet in each cell and the tray was gently rocked in an orbital shaker to spread the liquid uniformly over the diet surface. Trays were placed under clean airflow until the surface of each cell was uniformly dried. One or two 16-cell sections were used per treatment (the number in larvae treated was 16 or 32).
(§2) One healthy first instar larva was placed into each treatment cell, each 16-cell section was covered with a re-sealable lid and incubated at 27° C. and light-dark period of 16:8 hrs. After 7 days, and according to the species, the number of individuals in the following developmental categories was recorded.
(§3) Diamondback moth (Plutella xylostella): Dead Larva (lack of movement), Larva Stage I (≤50% relative size), Larva Stage II (100% relative size, full size), Early Pupa (light green color), Late Pupa (light-dark brown color), and Adult.
(§4) Negative/untreated controls were treated with filtered water and positive controls were treated with lethal doses of Bacillus thuringiensis subsp. Kurstaki (Btk) spores at 1000 ppm.
However, both neutral proteases reduced the number of individuals reaching adult stage.
The effect of lipase (10× enzyme rate) and free lipases were tested on a Diamondback Moth Btk resistant strain. Free Lipases from Burkholderia cepacia (Bc) and Pseudomonas fluorescens (Pf) were tested along with Lipase (SEQ ID NO: 76) and the results are shown below in Table 45.

Test [2] concerns Diamondback moth (Plutella xylostella). Briefly: Diet-surface overlay (DSO) bioassay on Diamondback moth. The class given is in vivo. The conditions noted are these: number of individuals, n = 16. The procedure: as §1, §2, §3, §4
For test [3], the system named is soybean cyst nematode (SCN). Put plainly: SCN reproduction after application of enzyme or recombinant strain to soil. The class given is in vivo, Heterodera glycines. The following applies: Table 33; for % Comparison to Control: first figure, water control = 100%. The procedure:
To determine the efficacy of nematicidal enzymes applied to soil, a controlled environment trial was performed with 7-day old soybean plants (variety 2830E3) grown in pots. Enzymes were produced as described in Example 2. Prior to inoculation, 0.5 mL of neutral protease (SEQ ID NO: 127), esterase B (SEQ ID NO: 89), or chitinase 19F (SEQ ID NO: 182) free enzyme solution was applied to the soil around the base of each plant, or 0.5 mL of water was applied for the control (30 plants per treatment). Then, hatched SCN juveniles were applied to the soil around each plant as described in Example 2, and three weeks later, cysts per gram of root tissue was determined as described in Example 2. The data was analyzed as in Example 2 and appears in Tables 33 and 34.
To determine the efficacy of recombinant strains applied to soil, a controlled environment trial was performed as described in Example 18 above (Reduction of soybean cyst nematode reproduction by enzymes applied to soil), with the exception that a recombinant strain expressing neutral protease (SEQ ID NO: 127) was applied instead of a free enzyme solution. The recombinant strain was produced as in Example 3, and the treatment applied to soil as a whole cell broth.

For test [4], the system named is soybean cyst nematode (SCN, Heterodera glycines). Put plainly: Soybean cyst nematode reproduction on soybean after seed treatment, controlled environment (cysts per gram of root tissue or per plant). In kind it is in vivo.

As for “Neutral protease (SEQ ID NO: 127): Bacillus sp. B16 neutral protease produced by fermentation in Bacillus subtilis; culture filtrate containing the secreted enzyme”, the “% Comparison to Control (figure in parentheses)” value is given as −26% in the test on Meloidogyne incognita (Table 26, change vs base control); −32% in test [3] (change vs water control); −42% in test [4] (Table 38, change vs base control, liquid 2 fl oz/unit, ILEVO). Further, the “% Comparison to Control” value was “reduction of average visual gall rating” in the test with Meloidogyne incognita (Table 26); 74% in the test on Meloidogyne incognita (Table 26, listed as Neutral protease seed treatment (SEQ ID NO: 127)); “reduced SCN reproduction” in test [3]; 68% in test [3] (listed as Neutral protease free enzyme (SEQ ID NO: 127)). For the same substance, the “Average root gall rating” value with Meloidogyne incognita (gall index scale of 1-5, seed treatment 2 fl oz per unit of seed, Bossier soybean, 8 weeks post-inoculation, 15 plants) worked out at 3.5. Also, the “Dead Larva” value in test [1] (Table 42, proteases at 10x rate) was 4; in test [2] (Table 41, proteases, after 7 days, rate in U/mL diet column) it was 2. The Adult in test [1] (Table 42) is given as 0; in test [2] (Table 41, 7 days) it was 0. Also, the “Early Pupa” value in test [1] (Table 42) was found to be 6; in test [2] (Table 41, 7 days), 8. Besides, the “Larva Stage I” value in test [1] (Table 42) is 0; in test [2] (Table 41, 7 days), 0. The “Larva Stage II” value in test [1] (Table 42) was 0; in test [2] (Table 41, 7 days), 0. For the same substance, the “Late Pupa” value in test [1] (Table 42) was determined as 22; in test [2] (Table 41, 7 days), 6. Moreover, the “Average cysts per g of root tissue” value is listed as 35.7 cysts per g of root tissue in test [3] (free enzyme 0.5 mL/plant to soil, soybean 2830E3, 3 weeks); 20.1 cysts per g of root tissue in test [4] (Table 11, free enzyme seed treatment 2 fl. oz. per unit of seed (ILEVO 0.15 mg active ingredient per seed), soybean P18A98X, 3 weeks after inoculation); 40.3 cysts per g of root tissue in test [4] (Table 14, seed treated with whole cell broth, soybean P18A98X); 208.8 cysts per g of root tissue in test [4] (Table 38, liquid formulation 2 fl oz/unit, ILEVO positive control, soybean 2830E3).

Values taken from patent US20260231954A1, “PESTICIDAL ENZYMES FOR USE ON NEMATODES, INSECTS, AND MOLLUSKS” (priority 2023, published 2026).
